The text below walks through data of patent US20200147039A1, “COMPOUNDS USEFUL IN INHIBITING HUMAN TREFOIL FACTOR 3” (NATIONAL UNIVERSITY OF SINGAPORE, priority 2017, published 2020).

In the assay the test system is MCF-7. As to the kind of experiment: AlamarBlue cell viability assay, MCF7. The format is cell-based, human. The settings on record: Homo sapiens, MCF7, MCF-7, AlamarBlue cell viability (Table 8). The text has this: (A) Inhibitory concentration 50% (IC50) values for compound 43 in the MC cell lines are tabulated, using an AlamarBlue™ cell viability assay as previously described in Pandey V et al., Breast Cancer Res. 2014; 16(5):429. (B) Measured dose-dependent manner effect of compound 43 on the viability of MC cells (left-side, TFF3-high and right, TFF3-low) using AlamarBlue™ viability assay as previously described (ibid). (C) Apoptotic cell death of mammary carcinoma cell lines measured after treatment with 10 μM compound 43 using flow cytometry analysis at 24 hour as described previously in Keerthy H K et al., PloS one. 2014; 9(9):e107118. Annexin V-FITC staining is indicated on the X-axis and PI staining on the Y-axis. […] Acquisition of Annexin V and PI data were represented as percentage (%) in each quadrant. Note: CM, conditioned media; MCF10A and MCF12A, non-transformed immortalized-mammary epithelial cell line. Points are mean of triplicate experiments; bars, ±SD. Statistical significance was assessed by using an unpaired two-tailed Student's t test (P<0.05 was considered as significant) using GraphPad Prism5. Columns are mean of triplicate experiments; bars, ±SD. **P<0.001, *P<0.05.
The human immortalized mammary epithelial cell lines, MCF10A, and MCF12A; and immortalized hepatocellular epithelial cell line, LO2 were obtained from the American Type Culture Collection (ATCC, Rockville, Md.) and were cultured as per ATCC propagation instructions. MC cell lines, MCF7, T47D, BT474, BT20, MDA-MB-361, MDA-MB-436, MDA-MB-468, and MDA-MB-231; endometrial carcinoma cell lines, Ishikawa, ECC1, RL95-2 and AN3; hepatocellular carcinoma cell lines, Hep3B, H2P, and H2M; colon carcinoma cell lines, DLD-1, and Caco-2; and prostate carcinoma cell lines, PC3, LNCaP, and DU145 were obtained from the American Type Culture Collection (ATCC, Rockville, Md.). Pancreatic carcinoma cell lines, AsPC-1 and BxPC-3; Lung carcinoma cell lines, HCC-827, NCI-H1975, HCC-4006, PC-14, and NCI-H1299; and Thyroid carcinoma cell lines HTH83, CAL62, T238, and OGK-M were obtained from Prof. H. Phillip Koeffler's laboratory at The Cancer Science Institute of Singapore, National University of Singapore (NUS). Gastric carcinoma cell lines, AGS, MKN-28, MKN-45, and A2-528 were obtained from Prof. Yoshiaki Ito's laboratory at The Cancer Science Institute of Singapore, NUS. All cell lines were cultured as per ATCC propagation instructions.
The above synthesised compounds were initially evaluated against a range of carcinoma cells using an AlamarBlue™ cell viability assay (using the protocol discussed above). The tested compounds were generally efficacious at reducing the viability of various carcinoma cells compared to vehicle (DMSO) treated cells. Table 8 provides selected IC50 data for certain of the compounds synthesised herein against MCF-7.
In table 9 IC50 values of compound 43 compound library in several cancer cell lines are tabulated, using an AlamarBlue® cell viability assay as previously described in Pandey V et al., Breast Cancer Res. 2014; 16(5):429. Statistical analysis was assessed by using GraphPad Prism5. Note: NV, no value.
(Resazurin is reduced to fluorescent resorufin, in cell work by metabolically active cells.)

`N#CC1=C(N)Oc2c(c(=O)oc3ccccc23)C1c1ccc(-c2ccc(C=O)o2)cc1F` (stereo not shown) [Compound 136]: the IC50 – broadly, the concentration at which inhibition is half-maximal – came out at 1.67 µM.

Consider `COc1ccc(C2C(C#N)=C(NC(=O)c3cccn3C)Oc3c2c(=O)oc2ccccc32)cc1-c1cnc(F)c(C)c1` (stereo not shown) [Compound 106], for which half-maximal inhibition (IC50) required 55 µM.

`Cc1c(-c2ccc(C3C(C#N)=C(N)Oc4c3c(=O)oc3ccc(F)cc43)cc2)ccnc1F` (stereo not shown) [Compound 149]: half-maximal inhibition (IC50) required 43.3 µM.

`N#CC1=C(N)Oc2c(c(=O)oc3ccc(F)cc23)C1c1ccc(-c2cccnc2)cc1F` (stereo not shown) [Compound 166] showed an IC50 of 53.8 µM.

`Cc1cc(-c2ccc(C3C(C#N)=C(NC(=O)Cc4cccc(Cl)c4)Oc4c3c(=O)oc3ccccc43)cc2)cnc1F` (stereo not shown) [Compound 98] displayed an IC50 of 58.3 µM.

As to `COc1ccc2c3c(c(=O)oc2c1)C(c1ccc(-c2ccc(Cl)cc2)cc1)C(C#N)=C(N)O3` (stereo not shown) [Compound 154], the IC50 came to 5.74 µM.

`Cc1cc(-c2ccc(C3C(C#N)=C(N)Oc4c3c(=O)oc3ccccc43)c(F)c2)cnc1Cl` (stereo not shown) [Compound 132] came in with a concentration for half-maximal inhibition (IC50) of 1.21 µM.

Molecule `COc1ccc2c3c(c(=O)oc2c1)C(c1ccc(-c2cnc(Cl)c(C)c2)cc1)C(C#N)=C(N)O3` (stereo not shown) [Compound 148] had an IC50 of 7.38 µM.

As for `Cc1cc(-c2ccc(C3C(C#N)=C(N)Oc4c3c(=O)oc3ccc(F)cc43)cc2)cnc1Cl` (stereo not shown) [Compound 147], half-maximal inhibition (IC50) required 0.526 µM.

As to `COc1ccc2c3c(c(=O)oc2c1)C(c1ccc(-c2ccnc(F)c2C)cc1)C(C#N)=C(N)O3` (stereo not shown) [Compound 150], the IC50 is 1.12 µM.

Molecule `N#CC1=C(N)Oc2c(c(=O)oc3ccccc23)C1c1ccc(-c2cn[nH]c2)cc1` (stereo not shown) [Compound 129] showed an IC50 of 263 µM.

For the molecule `COc1cccc(-c2ccc(C3C(C#N)=C(N)Oc4c3c(=O)oc3ccccc43)cc2)c1` (stereo not shown) [Compound 13], 17.8 µM corresponded to half-maximal inhibition (IC50).

`Cc1cc(-c2ccc(C3C(c4nnn[nH]4)=C(N)Oc4c3c(=O)oc3ccccc43)cc2)cnc1F` (stereo not shown) [Compound 113] registered an IC50 of 33.1 µM.

Turning to `COc1ccc(C2C(C#N)=C(NC(=O)c3cc(Cl)ccc3Cl)Oc3c2c(=O)oc2ccccc32)cc1-c1cnc(F)c(C)c1` (stereo not shown) [Compound 105], the IC50 was determined as 23.7 µM.

`N#CC1=C(N)Oc2c(c(=O)oc3ccccc23)C1c1ccc(-c2ccccc2)cc1` (stereo not shown) [Compound 1]: the IC50 was 22.6 µM.

As to `N#CC1=C(N)Oc2c(c(=O)oc3ccccc23)C1c1ccc(-c2cn[nH]c2)cc1F` (stereo not shown) [Compound 142], the IC50 came to 15.5 µM.

For the molecule `COc1ccc(C2C(C#N)=C(NC(=O)Cc3cccc(Cl)c3)Oc3c2c(=O)oc2ccccc32)cc1-c1cnc(F)c(C)c1` (stereo not shown) [Compound 103], the IC50 worked out at 40 µM.

In turn, `COc1ccc(C2C(C#N)=C(N)Oc3c2c(=O)oc2ccccc32)cc1-c1ccc(Cl)c(C(F)(F)F)c1` (stereo not shown) [Compound 73] returned an IC50 of 14.8 µM.

For `COc1ccc2c3c(c(=O)oc2c1)C(c1ccc(-c2cccnc2)cc1)C(C#N)=C(N)O3` (stereo not shown) [Compound 143], the IC50 came out at 0.685 µM.

Molecule `Cc1cc(-c2ccc(C3C(C#N)=C(NC(=O)c4cccn4C)Oc4c3c(=O)oc3ccccc43)cc2)cnc1F` (stereo not shown) [Compound 101] came in with an IC50 of 40.4 µM.

`Cc1ccc(-c2ccc(C3C(C#N)=C(N)Oc4c3c(=O)oc3ccccc43)cc2)cn1` (stereo not shown) [Compound 124] returned an IC50 of 43.8 µM.

On to `N#CC1=C(N)Oc2c(c(=O)oc3ccc(F)cc23)C1c1ccc(-c2cncnc2)cc1F` (stereo not shown) [Compound 168], for which the half-inhibitory concentration (IC50) was 251 µM.

The molecule `N#CC1=C(N)Oc2c(c(=O)oc3ccccc23)C1c1ccc(-c2ccc(C(F)(F)F)cc2)cc1` (stereo not shown) [Compound 123] registered an IC50 of 2.54 µM.

Take `COc1ccc(CC(=O)NC2=C(C#N)C(c3ccc(-c4cnc(F)c(C)c4)cc3)c3c(c4ccccc4oc3=O)O2)cc1OC` (stereo not shown) [Compound 99]: it took 33.4 µM to reach half-maximal inhibition (IC50).

For the molecule `Cc1c(-c2ccc(C3C(C#N)=C(N)Oc4c3c(=O)oc3ccccc43)c(F)c2)ccnc1F` (stereo not shown) [Compound 130], 7.93 µM corresponded to half-maximal inhibition (IC50).

Molecule `N#CC1=C(N)Oc2c(c(=O)oc3ccccc23)C1c1ccc(-c2cccnc2)cc1F` (stereo not shown) [Compound 133] came in with an IC50 of 3.26 µM.

Regarding `N#CC1=C(N)Oc2c(c(=O)oc3ccccc23)C1c1ccc(-c2ccncc2)cc1F` (stereo not shown) [Compound 131], it took 2.89 µM to reach half-maximal inhibition (IC50).

In the case of `N#CC1=C(N)Oc2c(c(=O)oc3ccccc23)C1c1ccc(-c2cccnc2)cc1` (stereo not shown) [Compound 31], the IC50 came to 5.21 µM.

For `COc1ccc(C2C(C#N)=C(N)Oc3c2c(=O)oc2ccccc32)cc1-c1cccnc1` (stereo not shown) [Compound 79], the IC50 amounted to 9.15 µM.

As for `COc1ccc(C2C(C#N)=C(N)Oc3c2c(=O)oc2ccccc32)cc1-c1ccccc1C` (stereo not shown) [Compound 55], the IC50 was found to be 18.6 µM.

Turning to `COc1cccc(-c2cc(C3C(C#N)=C(N)Oc4c3c(=O)oc3ccccc43)ccc2OC)c1` (stereo not shown) [Compound 61], the half-inhibitory concentration (IC50) is 8.94 µM.

As to `Cc1ccccc1-c1ccc(C2C(C#N)=C(N)Oc3c2c(=O)oc2ccc(F)cc32)cc1` (stereo not shown) [Compound 162], the IC50 came out at 164 µM.

With `Cc1cc(-c2ccc(C3C(C#N)=C(NC(=O)c4cc(Cl)ccc4Cl)Oc4c3c(=O)oc3ccccc43)cc2)cnc1F` (stereo not shown) [Compound 100], it took 177 µM to reach half-maximal inhibition (IC50).

Consider `COc1ccc(S(=O)(=O)NC2=C(C#N)C(c3ccc(OC)c(-c4cnc(F)c(C)c4)c3)c3c(c4ccccc4oc3=O)O2)cc1` (stereo not shown) [Compound 111], for which the IC50 was 39.3 µM.

`COc1ccc(C2C(C#N)=C(NS(=O)(=O)c3ccccc3)Oc3c2c(=O)oc2ccccc32)cc1-c1cnc(F)c(C)c1` (stereo not shown) [Compound 110] returned an IC50 of 67.4 µM.

For the molecule `N#CC1=C(N)Oc2c(c(=O)oc3ccc(F)cc23)C1c1ccc(-c2cncnc2)cc1` (stereo not shown) [Compound 160], the midpoint of inhibition, the IC50, lay at 253 µM.

Take `N#CC1=C(N)Oc2c(c(=O)oc3ccccc23)C1c1ccc(-c2cncnc2)cc1` (stereo not shown) [Compound 128]: it took 200 µM to reach half-maximal inhibition (IC50).

With `Cc1cc(-c2ccc(C3C(C#N)=C(N)Oc4c3c(=O)oc3ccc(F)cc43)c(F)c2)cnc1Cl` (stereo not shown) [Compound 170], the IC50 came to 27.3 µM.

Molecule `Cc1cc(-c2ccc(C3C(C#N)=C(NS(=O)(=O)c4ccc([N+](=O)[O-])cc4)Oc4c3c(=O)oc3ccccc43)cc2)cnc1F` (stereo not shown) [Compound 109] came in with a half-maximal inhibitory concentration (IC50) of 34.9 µM.

The molecule `N#CC1=C(N)Oc2c(c(=O)oc3ccccc23)C1c1ccc(-c2ccc(Cl)cc2)cc1` (stereo not shown) [Compound 127] had an IC50 of 3.25 µM.

Take `COc1ccc(C2C(C#N)=C(N)Oc3c2c(=O)oc2ccccc32)cc1-c1ccccc1` (stereo not shown) [Compound 49]: the concentration for half-maximal inhibition (IC50) turned out to be 28.2 µM.

In turn, `Cc1ccc(-c2ccc(C3C(C#N)=C(N)Oc4c3c(=O)oc3ccccc43)c(F)c2)cn1` (stereo not shown) [Compound 135] had an IC50 of 3.26 µM.

`COc1cccc(-c2ccc(C3C(C#N)=C(N)Oc4c3c(=O)oc3ccccc43)c(F)c2)c1` (stereo not shown) [Compound 140] registered an IC50 of 1.07 µM.

`COc1ccc(C2C(c3nnn[nH]3)=C(N)Oc3c2c(=O)oc2ccccc32)cc1-c1cnc(F)c(C)c1` (stereo not shown) [Compound 114] showed an IC50 of 39.8 µM.

`Cc1cc(-c2ccc(C3C(C#N)=C(N)Oc4c3c(=O)oc3ccccc43)cc2)cnc1Cl` (stereo not shown) [Compound 122]: the IC50 is 73.9 µM.

Molecule `N#CC1=C(N)Oc2c(c(=O)oc3ccccc23)C1c1ccc(-c2cncnc2)cc1F` (stereo not shown) [Compound 139] registered an IC50 of 4.23 µM.

For `N#CC1=C(N)Oc2c(c(=O)oc3ccc(F)cc23)C1c1ccc(-c2ccncc2)cc1` (stereo not shown) [Compound 145], the IC50 worked out at 2.81 µM.

Molecule `N#CC1=C(N)Oc2c(c(=O)oc3ccccc23)C1c1ccc(-c2cccc3ccccc23)cc1` (stereo not shown) [Compound 125] registered an IC50 of 8.23 µM.

For the molecule `N#CC1=C(N)Oc2c(c(=O)oc3ccccc23)C1c1ccc(-c2cccc3ccccc23)cc1F` (stereo not shown) [Compound 141], the IC50 came to 1.7 µM.

Regarding `Cc1ccccc1-c1ccc(C2C(C#N)=C(N)Oc3c2c(=O)oc2ccccc32)c(F)c1` (stereo not shown) [Compound 138], it took 0.751 µM to reach half-maximal inhibition (IC50).

The molecule `CC(=O)c1ccc(-c2ccc(C3C(C#N)=C(N)Oc4c3c(=O)oc3ccc(F)cc43)cc2)s1` (stereo not shown) [Compound 158] returned an IC50 of 95.2 µM.

Turning to `COc1ccc2c3c(c(=O)oc2c1)C(c1ccc(-c2ccc(C(F)(F)F)cc2)cc1)C(C#N)=C(N)O3` (stereo not shown) [Compound 151], inhibition was half-maximal at 2.45 µM (IC50).
